{"source": "patent US12180198B2", "about": "“Ribocil C antibiotics effective for Gram-negative pathogens” (THE BOARD OF TRUSTEES OF THE UNIVERSITY OF ILLINOIS, priority 2018, dated 2024)", "key": {"[1]": {"test_system": "E. coli harboring FabI A116V", "assay": "MIC against resistant mutants", "type": "cell-based", "conditions": "Escherichia coli", "description": "(§1) Antimicrobial susceptibility tests. Susceptibility testing was performed in biological triplicate, using the micro-dilution broth method as outlined by the Clinical and Laboratory Standards Institute. Bacteria were cultured with cation-adjusted Muller-Hinton broth (Sigma-Aldrich, Cat #90922) in round-bottom 96-well plates (Corning, Cat #3788). Human serum (pooled gender, 0.2 μm filtered) was purchased from BioIVT (Hicksville, NY).\n(§2) Selection of resistant mutants. Resistant mutants were selected via the large inoculum method."}, "[2]": {"test_system": "strains harboring FabI G148S", "assay": "MIC against resistant mutants", "type": "cell-based, E. coli", "conditions": "Escherichia coli, FABIG148S", "description": "as §1, §2"}, "Mouse MTD": {"assay": "Mouse MTD", "description": "The protocol was approved by the IACUC at the University of Illinois at Urbana-Champaign (Protocol Number: 16144). In these studies, 10- to 12-week-old female C57BL/6 mice purchased from Charles River were used. The maximum tolerate dose (MTD) of a single compound was determined first. […] For multiple doses, the compound was given by daily IP for 5 consecutive days and mice were monitored for signs of toxicity for 1 month. MTD was the highest dosage with acceptable toxicity (e.g., <20% weight loss). Single dose MTDs were initially determined."}, "A. baumannii W41979 [3]": {"test_system": "A. baumannii W41979", "assay": "Bacterial sepsis survival model", "type": "in vivo", "conditions": "CD-1 mice, 50 mg/kg IV once-per-day, four doses", "description": "(§3) FIG. 4. In vivo efficacy of Debio-1452-NH3. A. Kaplan-Meier survival curve of mouse efficacy model of A. baumannii sepsis. Seven-week-old CD-1 mice were infected with A. baumannii W41979 (2.6×10^8 CFU/mouse, 15 mice per group) via IV injection. Mice were treated once-a-day for 4 days with FabI inhibitor (IV, 50 mg/kg). Log-rank test, p<0.0001. B. Acute pneumonia infections initiated in CD-1 mice with A. baumannii W41979 (2.1×10^8 CFU/mouse, intranasal) were treated with vehicle (8 mice) or FabI inhibitor (10 mice per group) 8, 30, and 48 h post-infection (IV, 50 mg/kg), and the bacterial burden was evaluated 72 h post-infection. C. Kaplan-Meier survival curve of in vivo efficacy model of K. pneumonia sepsis. Seven-week-old CD-1 mice were infected with K. pneumoniae BAA-1705 (1.08×10^8 CFU/mouse, 15 mice per group) via IV injection. […] Acute pneumonia infections initiated in CD-1 mice with K. pneumoniae BAA-1705 (4.4×10^8 CFU/mouse, intranasal) were treated with vehicle or FabI inhibitor (8 mice per group) 6, 23, and 45 h post-infection (IV, 50 mg/kg), and the bacterial burden was evaluated 72 h post-infection. […] Acute pneumonia infections initiated in CD-1 mice with E. coli AR-0493 (1.73×10^8 CFU/mouse, intranasal) were treated with vehicle or FabI inhibitor (8 mice per group) 6 and 28 h post-infection (IV, 50 mg/kg), and the bacterial burden was evaluated 48 h post-infection. […]"}, "A. baumannii W41979 [4]": {"test_system": "A. baumannii W41979", "assay": "Acute pneumonia bacterial burden model", "type": "in vivo", "conditions": "CD-1 mice, 50 mg/kg IV", "description": "as §3, with “C.” for “C. Kaplan-Meier survival curve of in vivo efficacy model of K. pneumonia sepsis. Seven-week-old CD-1 mice were infected with K. pneumoniae BAA-1705 (1.08×10^8 CFU/mouse, 15 mice per group) via IV injection.”\n(§4) Acute pneumonia bacterial burden model. […] At 48 h post-infection (E. coli) or 72 h post-infection (A. baumannii and K. pneumoniae), CFU were determined in the lungs through serial dilutions. […]"}, "[5]": {"test_system": "carbepenem-resistant K. pneumoniae", "assay": "Sepsis survival and pneumonia bacterial burden models", "type": "in vivo", "conditions": "CD-1 mice, K. pneumoniae BAA-1705, 50 mg/kg IV", "description": "as §3, with “C.” for “C. Kaplan-Meier survival curve of in vivo efficacy model of K. pneumonia sepsis. Seven-week-old CD-1 mice were infected with K. pneumoniae BAA-1705 (1.08×10^8 CFU/mouse, 15 mice per group) via IV injection.”\nas §4"}, "[6]": {"test_system": "colistin-resistant E. coli", "assay": "Sepsis survival and pneumonia bacterial burden models", "type": "in vivo", "conditions": "CD-1 mice, E. coli AR-0493, 50 mg/kg IV", "description": "as §3, with “C.” for “C. Kaplan-Meier survival curve of in vivo efficacy model of K. pneumonia sepsis. Seven-week-old CD-1 mice were infected with K. pneumoniae BAA-1705 (1.08×10^8 CFU/mouse, 15 mice per group) via IV injection.”\nas §4"}}, "note": "Structures can show the parent of a compound that is named as a salt."}
{"smiles": "Cc1c(CN(C)C(=O)/C=C/c2cnc3c(c2)CC(N)C(=O)N3)oc2ccccc12", "note": "(stereo not drawn) [Debio-1452-NH3, (E)-3-(6-amino-7-oxo-5,6,7,8-tetrahydro-1,8-naphthyridin-3-yl)-N-methyl-N-((3-methylbenzofuran-2-yl)methyl)acrylamide hydrochloride]", "values": [{"measurement": "MIC", "setting": "[1]", "value": 64, "unit": "µg/mL"}, {"measurement": "MIC", "setting": "[2]", "value": "> 64", "unit": "µg/mL"}, {"measurement": "dose well tolerated in mice", "setting": "Mouse MTD; female, C57BL/6, mouse, in vivo, ip, 5 days", "value": 50, "unit": "mg/kg"}, {"measurement": "single dose well tolerated", "setting": "Mouse MTD; mice, IP injection, single dose, monitored 2 weeks", "value": 50, "unit": "mg/kg"}, {"measurement": "daily dosing well tolerated", "setting": "Mouse MTD; mice, IP, daily for 5 consecutive days", "value": 50, "unit": "mg/kg"}, {"measurement": "survival (in words)", "setting": "A. baumannii W41979 [3]", "value": "significantly increased survival"}, {"measurement": "bacterial burden (in words)", "setting": "A. baumannii W41979 [4]", "value": "reduced bacterial burden"}, {"measurement": "efficacy in infected mice (in words)", "setting": "[5]", "value": "efficacy"}, {"measurement": "efficacy in infected mice (in words)", "setting": "[6]", "value": "efficacy"}]}
